Data as given in patent publication US11000033B2, “Ketone or oxime compound, and herbicide” (NISSAN CHEMICAL CORPORATION, priority 2014, dated 2021).

How the values were obtained:
Format in all cases: in vivo
[1] = test system: Chenopodium album; experiment: Test Example 5: herbicidal effect by foliage application, plastic box (symbol O); conditions: 320 g/ha, 3 weeks after application
Summary of the method: (§1)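 Post-emergence spray; diluvial soil (sterilized), ~1.5 cm seed cover; greenhouse 25–30° C; 14-day-old plants; water-diluted emulsion at predetermined dose; visual score at 3 wk post-treatment.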

[2] = test system: Avena fatua; experiment: Test Example 5: herbicidal effect by foliage application, plastic box (symbol I); conditions: 320 g/ha, 3 weeks after application
Summary of the method: as §1

[3] = test system: Scirpus juncoides; experiment: Test Example 1: herbicidal activity, application before weed generation in submerged conditions (symbol B); conditions: application herbicide amount 320 g/ha
Summary of the method: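 Greenhouse growth at 25–30 °C lasted 3 weeks after treatment, when each weed was graded 0–5 by herbicidal ratio. Treatment was a diluted emulsion applied to the water surface of 4 cm-submerged alluvial soil on the sowing day.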

[4] = test system: Echinochloa crus-galli var. crus-galli; experiment: Test Example 5: herbicidal effect by foliage application, plastic box (symbol H); conditions: 320 g/ha, 3 weeks after application
Summary of the method: as §1

[5] = test system: Setaria viridis; experiment: Test Example 4: herbicidal effect by soil treatment (symbol G); conditions: application herbicide amount 320 g/ha
Summary of the method: (§2)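 Seeds were sown in sterilized diluvial soil, covered with about 1.5 cm of soil, and the soil surface was sprayed with a water-diluted emulsion of the compound at a predetermined rate. Plants grew in a greenhouse at 25° C. to 30° C.; effects were scored visually 3 weeks after application.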

[6] = test system: Monochoria vaginalis; experiment: Test Example 2: herbicidal activity, application during weed generation in submerged conditions (symbol C); conditions: Table 23; application herbicide amount 320 g/ha; grade 0-5 by criteria of Test Example 1
Summary of the method: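 Compound was applied as a water-diluted emulsion into the standing water of flooded pots (4 cm) once co-sown weeds reached one to two leaves. Greenhouse temperature was 25° C. to 30° C., soil was alluvial, and each species was rated visually after 3 weeks.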

[7] = test system: rapeseed; experiment: Test Example 5: effect on crop by foliage application, plastic box (symbol g); conditions: 320 g/ha, 3 weeks after application
Summary of the method: (§3)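 Foliage-application test plants come from spot sowing in sterilized diluvial soil under a soil layer of about 1.5 cm, grown at 25° C. to 30° C. in a greenhouse.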

[8] = test system: Veronica persica; experiment: Test Example 5: herbicidal effect by foliage application, plastic box (symbol R); conditions: 320 g/ha, 3 weeks after application
Summary of the method: as §1

[9] = test system: Digitaria ciliaris; experiment: Test Example 5: herbicidal effect by foliage application, plastic box (symbol F); conditions: 320 g/ha, 3 weeks after application
Summary of the method: as §1

[10] = test system: Setaria viridis; experiment: Test Example 5: herbicidal effect by foliage application, plastic box (symbol G); conditions: 320 g/ha, 3 weeks after application
Summary of the method: as §1

[11] = test system: rapeseed; experiment: Test Example 4: effect on crop by soil treatment (symbol g); conditions: application herbicide amount 320 g/ha
Summary of the method: (§4)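 Diluvial soil (sterilized) in boxes; seeds placed spot-wise alongside weed species; ~1.5 cm covering soil. Greenhouse, 25–30° C.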

[12] = test system: rice; experiment: Test Example 4: effect on crop by soil treatment (symbol b); conditions: application herbicide amount 320 g/ha
Summary of the method: as §4

[13] = test system: Abutilon theophrasti; experiment: Test Example 5: herbicidal effect by foliage application, plastic box (symbol M); conditions: 320 g/ha, 3 weeks after application
Summary of the method: as §1

[14] = test system: Apera spica-venti; experiment: Test Example 5: herbicidal effect by foliage application, plastic box (symbol L); conditions: 320 g/ha, 3 weeks after application
Summary of the method: as §1

[15] = test system: Apera spica-venti; experiment: Test Example 4: herbicidal effect by soil treatment (symbol L); conditions: application herbicide amount 320 g/ha
Summary of the method: as §2

[16] = test system: soybean; experiment: Test Example 5: effect on crop by foliage application, plastic box (symbol d); conditions: 320 g/ha, 3 weeks after application
Summary of the method: as §3

[17] = test system: Avena fatua; experiment: Test Example 4: herbicidal effect by soil treatment (symbol I); conditions: application herbicide amount 320 g/ha
Summary of the method: as §2

| Structure (SMILES) | O: Chenopodium album, herbicidal effect grade [1] | I: Avena fatua, herbicidal effect grade [2] | Herbicidal effect grade, B: Scirpus juncoides [3] | H: Echinochloa crus-galli var. crus-galli, herbicidal effect grade [4] | G (Setaria viridis) herbicidal effect grade [5] | Herbicidal effect grade, C: Monochoria vaginalis [6] | g: rapeseed, effect on crop grade [7] | R: Veronica persica, herbicidal effect grade [8] | F: Digitaria ciliaris, herbicidal effect grade [9] | G: Setaria viridis, herbicidal effect grade [10] | g (rapeseed) effect on crop grade [11] | b (directly sowed rice plant) effect on crop grade [12] | M: Abutilon theophrasti, herbicidal effect grade [13] | L: Apera spica-venti, herbicidal effect grade [14] | L (Apera spica-venti) herbicidal effect grade [15] | d: soybean, effect on crop grade [16] | I (Avena fatua) herbicidal effect grade [17] |
| --- | --- | --- | --- | --- | --- | --- | --- | --- | --- | --- | --- | --- | --- | --- | --- | --- | --- |
| CON=C(CC1CC(O)=C(c2c(C)cc(C)cc2C)C1=O)C1CC1 (stereo not shown) [1-046] | 2 (Herbicidal ratio of 20% or higher and lower than 40%) | 5 (Herbicidal ratio of 90% or more (almost completely withered)) | 5 (Herbicidal ratio of 90% or more (almost completely withered)) | 5 (Herbicidal ratio of 90% or more (almost completely withered)) | 4 (Herbicidal ratio of 70% or higher and lower than 90%) | 3 (Herbicidal ratio of 40% or higher and lower than 70%) | 4 (Herbicidal ratio of 70% or higher and lower than 90%) | 4 (Herbicidal ratio of 70% or higher and lower than 90%) | 4 (Herbicidal ratio of 70% or higher and lower than 90%) | 5 (Herbicidal ratio of 90% or more (almost completely withered)) | 4 (Herbicidal ratio of 70% or higher and lower than 90%) | 5 (Herbicidal ratio of 90% or more (almost completely withered)) | 3 (Herbicidal ratio of 40% or higher and lower than 70%) | 5 (Herbicidal ratio of 90% or more (almost completely withered)) | 5 (Herbicidal ratio of 90% or more (almost completely withered)) | 3 (Herbicidal ratio of 40% or higher and lower than 70%) | 5 (Herbicidal ratio of 90% or more (almost completely withered)) |
| CON=C(C)C(c1ccc(F)cc1)C1CC(O)=C(c2c(C)cc(C)cc2C)C1=O (stereo not shown) [1-049] | 0 (Herbicidal ratio of 5% or lower (almost no effect)) | 0 (Herbicidal ratio of 5% or lower (almost no effect)) | 0 (Herbicidal ratio of 5% or lower (almost no effect)) | 0 (Herbicidal ratio of 5% or lower (almost no effect)) | 0 (Herbicidal ratio of 5% or lower (almost no effect)) | 0 (Herbicidal ratio of 5% or lower (almost no effect)) | 0 (Herbicidal ratio of 5% or lower (almost no effect)) | 0 (Herbicidal ratio of 5% or lower (almost no effect)) | 0 (Herbicidal ratio of 5% or lower (almost no effect)) | 0 (Herbicidal ratio of 5% or lower (almost no effect)) | 0 (Herbicidal ratio of 5% or lower (almost no effect)) | 0 (Herbicidal ratio of 5% or lower (almost no effect)) | 0 (Herbicidal ratio of 5% or lower (almost no effect)) | 0 (Herbicidal ratio of 5% or lower (almost no effect)) | 0 (Herbicidal ratio of 5% or lower (almost no effect)) | 0 (Herbicidal ratio of 5% or lower (almost no effect)) | 0 (Herbicidal ratio of 5% or lower (almost no effect)) |
| CON=CCC1CC(O)=C(c2c(C)cc(C)cc2C)C1=O (stereo not shown) [1-050] | 0 (Herbicidal ratio of 5% or lower (almost no effect)) | 3 (Herbicidal ratio of 40% or higher and lower than 70%) | 2 (Herbicidal ratio of 20% or higher and lower than 40%) | 5 (Herbicidal ratio of 90% or more (almost completely withered)) | 4 (Herbicidal ratio of 70% or higher and lower than 90%) | 0 (Herbicidal ratio of 5% or lower (almost no effect)) | 4 (Herbicidal ratio of 70% or higher and lower than 90%) | 0 (Herbicidal ratio of 5% or lower (almost no effect)) | 3 (Herbicidal ratio of 40% or higher and lower than 70%) | 5 (Herbicidal ratio of 90% or more (almost completely withered)) | 0 (Herbicidal ratio of 5% or lower (almost no effect)) | 5 (Herbicidal ratio of 90% or more (almost completely withered)) | 3 (Herbicidal ratio of 40% or higher and lower than 70%) | 3 (Herbicidal ratio of 40% or higher and lower than 70%) | 0 (Herbicidal ratio of 5% or lower (almost no effect)) | 0 (Herbicidal ratio of 5% or lower (almost no effect)) | 0 (Herbicidal ratio of 5% or lower (almost no effect)) |
| CON=C(C)CC1CC(OC(=O)C(C)(C)Oc2ccc(Cl)cc2)=C(c2c(C)cc(C)cc2C)C1=O (stereo not shown) [1-051] | 0 (Herbicidal ratio of 5% or lower (almost no effect)) | 5 (Herbicidal ratio of 90% or more (almost completely withered)) | 5 (Herbicidal ratio of 90% or more (almost completely withered)) | 5 (Herbicidal ratio of 90% or more (almost completely withered)) | 5 (Herbicidal ratio of 90% or more (almost completely withered)) | 3 (Herbicidal ratio of 40% or higher and lower than 70%) | 4 (Herbicidal ratio of 70% or higher and lower than 90%) | 0 (Herbicidal ratio of 5% or lower (almost no effect)) | 5 (Herbicidal ratio of 90% or more (almost completely withered)) | 5 (Herbicidal ratio of 90% or more (almost completely withered)) | 4 (Herbicidal ratio of 70% or higher and lower than 90%) | 5 (Herbicidal ratio of 90% or more (almost completely withered)) | 4 (Herbicidal ratio of 70% or higher and lower than 90%) | 5 (Herbicidal ratio of 90% or more (almost completely withered)) | 5 (Herbicidal ratio of 90% or more (almost completely withered)) | 4 (Herbicidal ratio of 70% or higher and lower than 90%) | 3 (Herbicidal ratio of 40% or higher and lower than 70%) |
| CON=C(CC1CC(O)=C(c2c(C)cc(C)cc2C)C1=O)C(C)(C)C (stereo not shown) [1-059] | 0 (Herbicidal ratio of 5% or lower (almost no effect)) | 4 (Herbicidal ratio of 70% or higher and lower than 90%) | 3 (Herbicidal ratio of 40% or higher and lower than 70%) | 4 (Herbicidal ratio of 70% or higher and lower than 90%) | 4 (Herbicidal ratio of 70% or higher and lower than 90%) | 0 (Herbicidal ratio of 5% or lower (almost no effect)) | 3 (Herbicidal ratio of 40% or higher and lower than 70%) | 0 (Herbicidal ratio of 5% or lower (almost no effect)) | 1 (Herbicidal ratio of 5% or higher and lower than 20%) | 4 (Herbicidal ratio of 70% or higher and lower than 90%) | 0 (Herbicidal ratio of 5% or lower (almost no effect)) | 4 (Herbicidal ratio of 70% or higher and lower than 90%) | 0 (Herbicidal ratio of 5% or lower (almost no effect)) | 4 (Herbicidal ratio of 70% or higher and lower than 90%) | 5 (Herbicidal ratio of 90% or more (almost completely withered)) | 0 (Herbicidal ratio of 5% or lower (almost no effect)) | 0 (Herbicidal ratio of 5% or lower (almost no effect)) |
